From US20230241226A1, “COMPOUNDS FOR TARGETED DEGRADATION OF CARRIER PROTEINS AND USES THEREOF” (CeMM - Forschungszentrum für Molekulare Medizin GmbH, priority 2019, published 2023)

What was measured:
Assay type in all cases: cell-based
[1] = target: T1, dTAG-HA SLC2A3 (Homo sapiens, UniProt P11169+Q96SW2); assay: Targeted degradation of dTAG-tagged SLC2A3 (western blot)
T1 construct: expressed in transfected cells
Protocol: (C)HAP1 cells expressing dTAG-HA SLC1A5, 2A3, 30A9, 35B2, MTCH2, and 33A1 were treated for 24 hours with 0.5 µM of dTAG7 or dTAG13, as indicated. HAP1 cells expressing dTAG-HA SLC2A1 and 16A1 were treated for 24 hrs with 0.5 µM of dTAG7. HAP1 cell lines expressing dTAG-HA SLC39A7, dTAG-HA SLC4A4, and SLC7A3-dTAG-HA were treated for 48 hrs with 0.5 µM of dTAG13.
(§1) SLC1A5, SLC2A1, SLC2A3, SLC16A1, SLC38A1, SLC38A2 were obtained as gateway-compatible pENTR/pDONR vectors from the Harvard PlasmID Repository. SLC39A7 was obtained from Dharmacon, GE Healthcare. The following vectors were synthesized by Genescript: SLC4A4, SLC7A3, SLC38A9, SLC25A1, SLC9A1, SLC9A2, SLC9A3, SLC9A4, SLC9A5, SLC9A6, SLC9A7, SLC9A8, and SLC9B2. SLC30A9, SLC33A1, SLC35B2, SLC25A26, and MTCH2 were a gift from the RESOLUTE consortium. cDNAs were transferred into gateway-compatible lentiviral expression vectors: pLX305 dTAG vectors (Addgene #91797/8) or pRRL Strep-HA (described previously43, EF1a promotor driven expression) using LR recombination (ThermoFisher Scientific). For the generation of lentiviral stable overexpression cells, HEK293T cells were transfected with psPAX2 (Addgene #12260) and pMD2.G (Addgene #12259) and expression vectors using polyethylenimine (PEI). 12 hours post transfection medium was replaced with fresh medium. The medium, containing the virus, was harvested 48 hours later, filtered (0.45 µm), supplemented with 5 µg/ml Polybrene (Hexadimethrine bromide, Sigma) and added to target cells. […]
(§2) For immunoblotting, whole cell extracts were prepared using RIPA lysis buffer (25 mM Tris/HCl pH 7.6, 150 mM NaCl, 1% NP-40, 1% sodium deoxycholate, 0.1% SDS, EDTA-free protease inhibitor (Roche) and phosphatase inhibitors 2+3 (Sigma- Aldrich)). […] Protein extracts were quantified and normalized using the BCA assay (Thermo Scientific). […]
SLCs were ectopically expressed as fusions to a mutated FKBP domain, also known as the dTAG system. […]

[2] = target: T2, dTAG-HA SLC38A2 (Homo sapiens, UniProt Q96QD8+Q96SW2); assay: Targeted degradation of dTAG-tagged SLC38A2 (western blot); details: HAP1, 0.5 µM; for time to degradation of the glycosylated form (upper band) of dTAG-HA SLC38A2: time course
T2 construct: expressed in transfected cells
Protocol: (§3) (A) HAP1 cells expressing dTAG-HA SLC38A9, 38A2, or 38A1 were treated with 0.5 µM dTAG13 for 16, 24 or 48 hours.
as §1, §2
(§4) SLCs were ectopically expressed as fusions to a mutated FKBP domain, also known as the dTAG system. […] Each of the tested SLCs was stably expressed in HAP1 cells, and subcellular localization was assessed by immunofluorescence microscopy (FIG. 1B). […]

[3] = target: T3, dTAG-HA SLC38A9 (Homo sapiens, UniProt Q8NBW4+Q96SW2); assay: Targeted degradation of dTAG-tagged SLC38A9 (western blot)
T3 construct: expressed in transfected cells
Protocol: as §3
SLC1A5, SLC2A1, SLC2A3, SLC16A1, SLC38A1, SLC38A2 were obtained as gateway-compatible pENTR/pDONR vectors from the Harvard PlasmID Repository. SLC39A7 was obtained from Dharmacon, GE Healthcare. The following vectors were synthesized by Genescript: SLC4A4, SLC7A3, SLC38A9, SLC25A1, SLC9A1, SLC9A2, SLC9A3, SLC9A4, SLC9A5, SLC9A6, SLC9A7, SLC9A8, and SLC9B2. SLC30A9, SLC33A1, SLC35B2, SLC25A26, and MTCH2 were a gift from the RESOLUTE consortium. cDNAs were transferred into gateway-compatible lentiviral expression vectors: pLX305 dTAG vectors (Addgene #91797/8) or pRRL Strep-HA (described previously43, EF1a promotor driven expression) using LR recombination (ThermoFisher Scientific). […]
as §2, §4

T1 sequence (P11169 with tags, fused parts or gaps): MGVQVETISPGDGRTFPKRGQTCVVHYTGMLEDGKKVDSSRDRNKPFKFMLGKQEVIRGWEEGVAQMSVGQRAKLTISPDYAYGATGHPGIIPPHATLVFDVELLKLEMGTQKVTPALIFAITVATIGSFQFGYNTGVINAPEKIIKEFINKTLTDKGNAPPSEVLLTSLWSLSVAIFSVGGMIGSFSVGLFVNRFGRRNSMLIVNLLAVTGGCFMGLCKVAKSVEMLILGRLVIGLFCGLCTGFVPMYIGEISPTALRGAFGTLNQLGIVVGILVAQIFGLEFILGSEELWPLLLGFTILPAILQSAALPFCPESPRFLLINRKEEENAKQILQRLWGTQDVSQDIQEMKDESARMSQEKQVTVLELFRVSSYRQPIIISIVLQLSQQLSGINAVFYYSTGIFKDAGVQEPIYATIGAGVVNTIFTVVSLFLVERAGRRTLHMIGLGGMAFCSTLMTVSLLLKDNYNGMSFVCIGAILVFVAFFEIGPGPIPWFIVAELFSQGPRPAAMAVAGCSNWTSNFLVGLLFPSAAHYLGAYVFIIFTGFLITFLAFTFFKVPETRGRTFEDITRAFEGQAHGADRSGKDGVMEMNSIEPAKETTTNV
T1 sequence (Q96SW2 whole entry): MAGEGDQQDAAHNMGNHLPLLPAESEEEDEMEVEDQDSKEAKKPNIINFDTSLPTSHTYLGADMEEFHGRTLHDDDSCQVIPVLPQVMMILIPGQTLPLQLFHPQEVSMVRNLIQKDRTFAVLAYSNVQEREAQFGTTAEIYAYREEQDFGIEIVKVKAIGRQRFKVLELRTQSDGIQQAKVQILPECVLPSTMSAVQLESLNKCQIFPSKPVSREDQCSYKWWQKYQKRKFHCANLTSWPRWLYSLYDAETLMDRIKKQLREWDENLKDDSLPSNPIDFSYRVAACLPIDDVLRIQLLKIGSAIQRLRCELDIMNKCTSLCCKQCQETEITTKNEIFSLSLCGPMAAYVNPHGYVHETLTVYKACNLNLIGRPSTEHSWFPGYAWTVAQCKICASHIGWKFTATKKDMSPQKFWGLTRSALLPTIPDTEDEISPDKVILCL
T1 sequence (Q16531 whole entry partner): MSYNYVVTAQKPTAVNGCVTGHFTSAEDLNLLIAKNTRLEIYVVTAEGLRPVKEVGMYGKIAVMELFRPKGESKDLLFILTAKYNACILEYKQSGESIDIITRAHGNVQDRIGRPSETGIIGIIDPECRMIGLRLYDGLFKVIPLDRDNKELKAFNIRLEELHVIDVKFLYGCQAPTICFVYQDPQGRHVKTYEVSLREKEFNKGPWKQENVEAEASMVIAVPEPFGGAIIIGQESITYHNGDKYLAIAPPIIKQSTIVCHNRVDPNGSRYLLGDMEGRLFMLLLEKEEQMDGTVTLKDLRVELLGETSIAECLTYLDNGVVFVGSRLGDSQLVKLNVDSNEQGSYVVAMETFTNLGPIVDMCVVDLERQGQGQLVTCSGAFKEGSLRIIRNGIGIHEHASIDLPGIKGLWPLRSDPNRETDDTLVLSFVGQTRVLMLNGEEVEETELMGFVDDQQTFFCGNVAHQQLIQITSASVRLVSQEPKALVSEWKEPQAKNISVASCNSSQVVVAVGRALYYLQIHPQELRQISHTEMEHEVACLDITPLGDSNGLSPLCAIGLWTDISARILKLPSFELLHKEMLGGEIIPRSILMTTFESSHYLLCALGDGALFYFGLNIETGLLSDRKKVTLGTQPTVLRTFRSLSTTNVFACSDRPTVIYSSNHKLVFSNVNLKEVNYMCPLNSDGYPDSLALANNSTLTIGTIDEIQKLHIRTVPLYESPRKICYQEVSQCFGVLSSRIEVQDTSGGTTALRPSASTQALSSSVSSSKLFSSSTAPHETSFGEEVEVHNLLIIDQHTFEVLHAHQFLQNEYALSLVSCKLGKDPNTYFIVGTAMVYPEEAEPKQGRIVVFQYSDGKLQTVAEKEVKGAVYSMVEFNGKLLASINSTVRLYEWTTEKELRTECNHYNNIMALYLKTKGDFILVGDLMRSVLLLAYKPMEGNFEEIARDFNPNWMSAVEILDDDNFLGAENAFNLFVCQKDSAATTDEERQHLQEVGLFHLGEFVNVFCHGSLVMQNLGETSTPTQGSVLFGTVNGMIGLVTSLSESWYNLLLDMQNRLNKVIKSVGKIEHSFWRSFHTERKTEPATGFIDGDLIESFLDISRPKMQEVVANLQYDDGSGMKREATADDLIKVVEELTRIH
T2 sequence (Q96QD8 with tags, fused parts or gaps): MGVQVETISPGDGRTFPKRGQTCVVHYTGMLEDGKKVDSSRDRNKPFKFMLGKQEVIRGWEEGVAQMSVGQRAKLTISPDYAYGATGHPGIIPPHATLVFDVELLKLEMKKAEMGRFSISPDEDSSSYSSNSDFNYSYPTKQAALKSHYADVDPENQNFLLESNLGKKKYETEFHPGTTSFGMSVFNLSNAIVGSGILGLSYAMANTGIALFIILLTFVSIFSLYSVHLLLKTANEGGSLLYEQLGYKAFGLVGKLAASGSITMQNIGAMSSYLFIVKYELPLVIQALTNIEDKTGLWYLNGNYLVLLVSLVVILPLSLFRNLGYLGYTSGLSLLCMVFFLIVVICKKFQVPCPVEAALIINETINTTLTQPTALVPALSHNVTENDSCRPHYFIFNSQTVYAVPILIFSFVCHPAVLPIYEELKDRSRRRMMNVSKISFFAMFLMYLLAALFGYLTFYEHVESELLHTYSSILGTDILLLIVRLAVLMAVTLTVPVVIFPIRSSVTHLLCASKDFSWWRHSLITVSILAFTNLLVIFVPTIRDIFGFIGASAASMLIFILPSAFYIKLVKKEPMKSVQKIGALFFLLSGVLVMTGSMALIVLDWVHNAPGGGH
T2 sequence (Q96SW2 whole entry): as the sequence (Q96SW2 whole entry) above
T2 sequence (Q16531 whole entry partner): as the sequence (Q16531 whole entry partner) above
T3 sequence (Q8NBW4 with tags, fused parts or gaps): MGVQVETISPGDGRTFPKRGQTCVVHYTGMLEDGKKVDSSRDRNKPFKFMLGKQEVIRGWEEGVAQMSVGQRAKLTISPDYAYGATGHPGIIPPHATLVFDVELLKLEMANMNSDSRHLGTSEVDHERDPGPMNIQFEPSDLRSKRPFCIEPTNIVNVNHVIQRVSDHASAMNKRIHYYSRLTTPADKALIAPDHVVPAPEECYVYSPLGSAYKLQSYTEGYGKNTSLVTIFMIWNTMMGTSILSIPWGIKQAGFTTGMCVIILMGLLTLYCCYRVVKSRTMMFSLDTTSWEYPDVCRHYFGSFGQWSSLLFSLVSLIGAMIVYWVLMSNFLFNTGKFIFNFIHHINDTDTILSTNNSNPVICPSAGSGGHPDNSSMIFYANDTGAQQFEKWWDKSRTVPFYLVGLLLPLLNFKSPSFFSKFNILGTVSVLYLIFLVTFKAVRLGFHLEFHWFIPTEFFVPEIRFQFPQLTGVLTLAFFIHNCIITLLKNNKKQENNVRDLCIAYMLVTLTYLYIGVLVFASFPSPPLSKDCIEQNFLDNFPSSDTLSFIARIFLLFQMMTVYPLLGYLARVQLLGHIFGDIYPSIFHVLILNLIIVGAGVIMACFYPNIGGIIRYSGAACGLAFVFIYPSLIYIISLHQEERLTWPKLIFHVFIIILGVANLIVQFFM
T3 sequence (Q96SW2 whole entry): as the sequence (Q96SW2 whole entry) above
T3 sequence (Q16531 whole entry partner): as the sequence (Q16531 whole entry partner) above

Row | SMILES | degradation of dTAG-HA SLC2A3 ([1]; HAP1, LS180 and HCT15 cells, 0.5 µM, 72 hours) | degradation of SLC2A3 tagged on the N- or C-terminus with dTAG-HA ([1]; two HAP1 cell lines, 24 hours) | time to degradation of the glycosylated form (upper band) of dTAG-HA SLC38A2 [2] | degradation of the target SLC ([2]; dTAG-HA SLC38A2, 16, 24 or 48 hours) | degradation of the target SLC ([3]; HAP1, 0.5 µM, 16, 24 or 48 hours) | initiation of degradation (time course) ([1]; HAP1, dTAG-HA SLC2A3, 0.5 µM) | reversibility of degradation of the target SLC ([3]; HAP1, 0.5 µM, 24, 48 or 72 hours)
1 | CC[C@H](C(=O)N1CCCC[C@H]1C(=O)O[C@H](CCc1ccc(OC)c(OC)c1)c1ccccc1OCC(=O)NCCCCCCOc1cccc2c1C(=O)N(C1CCC(=O)NC1=O)C2=O)c1cc(OC)c(OC)c(OC)c1 (some centres unmarked) [dTAG13] | completely degraded | degraded in both | within five hours | Near-complete degradation | Near-complete degradation | – | –
2 | CC[C@H](C(=O)N1CCCC[C@H]1C(=O)O[C@H](CCc1ccc(OC)c(OC)c1)c1ccccc1OCC(=O)NCCCOCCOCCOCCCNC(=O)COc1cccc2c1C(=O)N(C1CCC(=O)NC1=O)C2=O)c1cc(OC)c(OC)c(OC)c1 (some centres unmarked) [dTAG7] | – | – | within five hours | – | – | ≤ 6 h | reversible degradation
